Data as given in ChEMBL document CHEMBL1201862, “PubChem BioAssay data set” (2004).
One block for each compound: values may come before it. Active and inactive are the calls of the source.

Experiments:
Genome polyprotein = Genome polyprotein (dengue virus type 2, UniProt P29990); experiment: flavivirus cap methylation enzyme inhibition – biochemical, confirmation dose response, primary screen (AID 588689); assay type: functional
[1] = target: Envelope glycoprotein gp160 (Human immunodeficiency virus 1, UniProt Q6QLK5); experiment: cell-free HIV fusion peptide-binding blockers – biochemical, uHTS, fluorescence dequenching, […] (AID 1986)
[2] = target: T1, Rac GTPase-activating protein 1 (Homo sapiens, UniProt Q9H0H5); experiment: blockers of MgcRacGAP-driven Rac1 GTP hydrolysis – biochemical, ADP Hunter fluorescence, primary and confirmatory, confirmation (AID 624330); assay type: functional
T1 sequence (Q9H0H5 whole entry): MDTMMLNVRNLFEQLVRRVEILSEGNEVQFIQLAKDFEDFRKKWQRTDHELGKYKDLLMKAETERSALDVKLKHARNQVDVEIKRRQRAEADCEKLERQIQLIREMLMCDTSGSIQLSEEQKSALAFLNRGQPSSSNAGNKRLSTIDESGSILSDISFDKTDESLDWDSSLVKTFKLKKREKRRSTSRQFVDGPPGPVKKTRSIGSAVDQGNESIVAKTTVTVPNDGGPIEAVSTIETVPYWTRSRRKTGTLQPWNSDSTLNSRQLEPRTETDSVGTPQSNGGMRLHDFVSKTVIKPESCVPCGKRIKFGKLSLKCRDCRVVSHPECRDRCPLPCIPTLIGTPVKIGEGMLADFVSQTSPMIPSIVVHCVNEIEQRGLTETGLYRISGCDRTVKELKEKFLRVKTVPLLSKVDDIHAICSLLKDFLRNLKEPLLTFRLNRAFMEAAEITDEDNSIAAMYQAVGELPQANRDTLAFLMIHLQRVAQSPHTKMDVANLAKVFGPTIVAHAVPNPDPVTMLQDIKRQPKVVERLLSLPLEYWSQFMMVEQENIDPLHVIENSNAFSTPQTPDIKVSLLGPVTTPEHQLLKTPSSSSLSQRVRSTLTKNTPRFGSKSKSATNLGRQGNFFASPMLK

[3] = target: T2, Type-1 angiotensin II receptor (Homo sapiens, UniProt P30556); experiment: agonist activity at AGTR1 – cell-based, uHTS hits, selectivity assay for APJ receptor agonist project, dose response (AID 488865); assay type: functional;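 note: beta-arrestin recruitment to AT1 measured by enzyme fragment complementation luminescence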
T2 sequence (P30556 whole entry): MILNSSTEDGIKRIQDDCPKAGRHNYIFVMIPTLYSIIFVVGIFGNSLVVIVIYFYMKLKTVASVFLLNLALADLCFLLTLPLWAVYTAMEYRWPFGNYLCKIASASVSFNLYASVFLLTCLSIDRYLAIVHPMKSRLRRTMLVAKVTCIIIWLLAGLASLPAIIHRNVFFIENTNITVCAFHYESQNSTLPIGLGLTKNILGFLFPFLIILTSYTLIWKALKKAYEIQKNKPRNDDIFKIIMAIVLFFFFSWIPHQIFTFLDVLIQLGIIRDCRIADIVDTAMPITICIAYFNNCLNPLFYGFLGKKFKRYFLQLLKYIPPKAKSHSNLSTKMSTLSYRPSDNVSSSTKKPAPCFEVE

Cytochrome P450 2C9 = Cytochrome P450 2C9 (Homo sapiens, UniProt P11712)
[4] = target: G-protein coupled receptor 55 (Homo sapiens, UniProt Q9Y2T6); experiment: selective activators of receptor GPR55 – imaging, U2OS cells, beta-arrestin-GFP redistribution, primary screen (AID 1961); assay type: functional
Phospholipase A2 = Phospholipase A2 (Homo sapiens, UniProt P04054); assay type: functional;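 note: confirmatory dose-response counterscreen on phospholipase A2, testing hits that came from an ultra-high-throughput screen for ATG4B inhibitors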
Cysteine protease ATG4B = target: T3, Cysteine protease ATG4B (Homo sapiens, UniProt Q9Y4P1); assay type: functional;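 note: Fluorescence-based dose-response confirmation assay measuring inhibition of ATG4B activity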
T3 sequence (Q9Y4P1 whole entry): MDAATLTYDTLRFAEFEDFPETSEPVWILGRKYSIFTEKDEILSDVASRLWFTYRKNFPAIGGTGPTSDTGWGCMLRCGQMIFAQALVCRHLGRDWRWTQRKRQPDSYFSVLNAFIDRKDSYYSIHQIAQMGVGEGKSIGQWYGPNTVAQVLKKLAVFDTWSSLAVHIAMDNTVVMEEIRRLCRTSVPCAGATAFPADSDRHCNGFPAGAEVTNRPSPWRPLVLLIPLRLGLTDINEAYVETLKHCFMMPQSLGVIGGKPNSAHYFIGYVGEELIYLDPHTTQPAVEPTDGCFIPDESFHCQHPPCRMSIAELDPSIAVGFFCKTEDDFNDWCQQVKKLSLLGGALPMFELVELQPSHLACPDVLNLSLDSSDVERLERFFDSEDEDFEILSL

[5] = alpha-synuclein stem-loop luciferase translation blockers – H4 neuroglioma cells, luminescence, confirmation (AID 1988); assay type: functional, cell-based
X-box-binding protein 1 = X-box-binding protein 1 (Homo sapiens, UniProt P17861); assay type: functional, Cricetulus griseus;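 note: confirmatory dose-response counter-screen serving a CHOP assay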
[6] = luciferase reporter signal suppression in cells – H4 neuroglioma cells, luminescence, dose response (AID 1990); assay type: functional, cell-based

Phospholipase A2, sequence (P04054 whole entry): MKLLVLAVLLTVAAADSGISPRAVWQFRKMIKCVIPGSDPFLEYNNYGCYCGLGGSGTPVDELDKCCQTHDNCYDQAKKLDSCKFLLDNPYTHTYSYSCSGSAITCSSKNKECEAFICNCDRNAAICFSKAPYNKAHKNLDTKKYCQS
Cytochrome P450 2C9, sequence (P11712 whole entry): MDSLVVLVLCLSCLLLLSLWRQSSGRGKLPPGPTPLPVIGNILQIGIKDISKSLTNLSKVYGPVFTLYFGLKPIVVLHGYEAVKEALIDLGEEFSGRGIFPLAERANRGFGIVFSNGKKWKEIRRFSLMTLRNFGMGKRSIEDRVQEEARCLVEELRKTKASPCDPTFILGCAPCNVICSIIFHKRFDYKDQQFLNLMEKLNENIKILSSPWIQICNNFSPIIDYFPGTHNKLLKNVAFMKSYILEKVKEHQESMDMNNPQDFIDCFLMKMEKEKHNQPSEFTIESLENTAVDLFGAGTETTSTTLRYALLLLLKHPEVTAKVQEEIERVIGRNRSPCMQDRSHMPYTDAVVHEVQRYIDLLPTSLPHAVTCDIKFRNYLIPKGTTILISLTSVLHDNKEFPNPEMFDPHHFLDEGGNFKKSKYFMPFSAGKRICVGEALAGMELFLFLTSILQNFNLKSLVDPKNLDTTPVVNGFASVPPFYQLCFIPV
G-protein coupled receptor 55, sequence (Q9Y2T6 whole entry): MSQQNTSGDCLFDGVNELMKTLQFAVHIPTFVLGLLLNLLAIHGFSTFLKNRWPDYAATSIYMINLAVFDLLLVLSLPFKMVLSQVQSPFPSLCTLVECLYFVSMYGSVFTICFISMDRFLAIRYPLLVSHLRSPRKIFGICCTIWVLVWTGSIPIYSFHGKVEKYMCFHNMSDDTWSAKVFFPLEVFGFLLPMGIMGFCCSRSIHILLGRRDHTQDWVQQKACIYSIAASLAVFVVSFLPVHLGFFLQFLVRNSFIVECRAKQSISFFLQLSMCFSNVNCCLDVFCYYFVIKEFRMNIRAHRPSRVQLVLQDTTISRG
Genome polyprotein, sequence (P29990 2492-3391 limits assumed): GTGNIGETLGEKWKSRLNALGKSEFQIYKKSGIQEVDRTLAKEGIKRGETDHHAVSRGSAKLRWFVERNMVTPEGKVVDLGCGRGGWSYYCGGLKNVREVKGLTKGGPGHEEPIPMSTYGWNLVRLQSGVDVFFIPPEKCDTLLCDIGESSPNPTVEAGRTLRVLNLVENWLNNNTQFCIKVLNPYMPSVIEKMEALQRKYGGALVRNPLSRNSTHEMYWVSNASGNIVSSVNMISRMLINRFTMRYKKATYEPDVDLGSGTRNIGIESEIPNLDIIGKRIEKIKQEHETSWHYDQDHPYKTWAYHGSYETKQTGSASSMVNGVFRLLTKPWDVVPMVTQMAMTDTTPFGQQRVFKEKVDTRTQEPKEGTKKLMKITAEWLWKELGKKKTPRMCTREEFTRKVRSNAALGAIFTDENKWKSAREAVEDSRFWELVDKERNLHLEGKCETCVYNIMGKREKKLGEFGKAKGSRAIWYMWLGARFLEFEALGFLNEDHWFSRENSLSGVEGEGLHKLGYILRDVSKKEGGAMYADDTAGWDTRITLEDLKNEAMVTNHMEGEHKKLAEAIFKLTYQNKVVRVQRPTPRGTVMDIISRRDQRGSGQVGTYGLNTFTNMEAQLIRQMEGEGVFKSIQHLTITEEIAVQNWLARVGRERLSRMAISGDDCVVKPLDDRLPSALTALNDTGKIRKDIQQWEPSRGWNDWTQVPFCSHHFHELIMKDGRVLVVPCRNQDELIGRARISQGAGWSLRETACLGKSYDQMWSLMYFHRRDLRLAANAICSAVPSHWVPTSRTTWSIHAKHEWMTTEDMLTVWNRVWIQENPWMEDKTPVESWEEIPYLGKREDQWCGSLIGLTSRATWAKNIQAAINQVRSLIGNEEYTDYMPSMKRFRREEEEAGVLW
Envelope glycoprotein gp160, sequence (Q6QLK5 whole entry, the tested form may be a part): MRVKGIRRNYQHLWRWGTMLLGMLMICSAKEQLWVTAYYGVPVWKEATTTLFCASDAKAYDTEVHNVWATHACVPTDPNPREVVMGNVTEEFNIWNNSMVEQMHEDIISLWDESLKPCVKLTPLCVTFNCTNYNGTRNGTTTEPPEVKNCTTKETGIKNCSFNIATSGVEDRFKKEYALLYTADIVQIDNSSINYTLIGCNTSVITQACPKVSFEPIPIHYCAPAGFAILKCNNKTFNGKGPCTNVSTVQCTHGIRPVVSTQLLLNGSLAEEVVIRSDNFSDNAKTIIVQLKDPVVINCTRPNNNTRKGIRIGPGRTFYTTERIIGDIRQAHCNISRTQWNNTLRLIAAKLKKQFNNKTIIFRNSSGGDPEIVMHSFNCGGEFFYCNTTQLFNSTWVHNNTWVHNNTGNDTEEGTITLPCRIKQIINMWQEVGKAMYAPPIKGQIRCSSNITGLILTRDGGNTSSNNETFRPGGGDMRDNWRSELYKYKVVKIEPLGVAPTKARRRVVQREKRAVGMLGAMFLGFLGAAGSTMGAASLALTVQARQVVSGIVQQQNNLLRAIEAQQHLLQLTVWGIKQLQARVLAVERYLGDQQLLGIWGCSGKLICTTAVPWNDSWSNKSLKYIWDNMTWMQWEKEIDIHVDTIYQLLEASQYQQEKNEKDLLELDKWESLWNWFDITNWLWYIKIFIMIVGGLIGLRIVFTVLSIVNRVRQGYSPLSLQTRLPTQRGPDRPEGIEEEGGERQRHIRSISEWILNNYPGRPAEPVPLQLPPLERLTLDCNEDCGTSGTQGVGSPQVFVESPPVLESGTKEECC
X-box-binding protein 1, sequence (P17861 whole entry): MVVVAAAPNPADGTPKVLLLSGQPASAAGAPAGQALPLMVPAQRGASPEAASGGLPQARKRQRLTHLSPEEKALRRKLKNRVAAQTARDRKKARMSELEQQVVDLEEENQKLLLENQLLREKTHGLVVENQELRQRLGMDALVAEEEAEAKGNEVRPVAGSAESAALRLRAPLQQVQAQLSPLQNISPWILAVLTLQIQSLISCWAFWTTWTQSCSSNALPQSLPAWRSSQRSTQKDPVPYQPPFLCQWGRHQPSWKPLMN

Structure (SMILES): CN1C(=O)/C(=C/c2ccc(C(=O)Nc3ccc(O)cc3C(=O)O)cc2)SC1=S
IC50 (Genome polyprotein): 31.8 µM (active)
IC50 [1]: 11.3 µM (active)
IC50 [2]: 55.1 µM (active)

EC50 [3]: > 100 µM (inactive)
Structure (SMILES): CC1CCN(S(=O)(=O)c2ccc3nc(N4CCN(c5ccccc5)CC4)ccc3c2)CC1

AC50 (Cytochrome P450 2C9): 2 µM (inconclusive)
EC50 [4]: 4.7 µM (active)
IC50 (Phospholipase A2): 3.11 µM (active)
IC50 (Cysteine protease ATG4B): 7.86 µM (active)
Structure (SMILES): COc1cc(/C=C2/C(=N)N3C=CSC3=NC2=O)ccc1OCCCOc1c(C)cccc1C

Structure (SMILES): CC(C)Cn1c(=O)c2ccccc2n2c(SCC(=O)N3c4ccccc4CC3C)nnc12 (stereo unspecified)
EC50 [5]: > 120 µM (not active)
Absolute IC50 (XBP1) (X-box-binding protein 1): 10 µM
EC50 [6]: 36 µM (active)
